From patent US20250326753A1, “DUAL CXCR4-BTK INHIBITORS” (X4 Pharmaceuticals, Inc., priority 2022, published 2025) come the findings set out here.

Read-outs that look alike come from different tables or passages of the source. A value given as a limit tells only on which side of the number the result lay.

Assay [1] relates to Ramos cell line. Description: Ramos cell line viability assay (CellTiter-Glo, 72 hr). As to conditions: Homo sapiens. It counts as cell-based. The procedure: Inhibition of non-Hodgkin lymphoma B-cell proliferation by compounds of the present invention was evaluated in a Ramos cell line. Ramos is a B lymphocyte cell line that was derived from a patient with Burkitt's Lymphoma.
Cell viability was analyzed with the CellTiter-Glo® Luminescent Cell Viability Assay Kit (G7572, Promega), according to the manufacturer's instruction. Cells were seeded into a 96-well/384-well plate and then incubated in 5% CO2 at 37° C. overnight. Compounds were added to the cells, with 9-10 dose points in duplicates in 3-fold dilution from a top concentration of 30 μM, and incubated in 5% CO2 at 37° C. for 72 hr. The 96-well/384-well plate was equilibrated at room temperature for 30 min. 50 μl/25 μl of CellTiter-Glo® Reagent was added to each well and mixed for 2 min on an orbital shaker to induce cell lysis. The 96-well/384-well plate was incubated at room temperature for 10 min to stabilize luminescent signal. Luminescence was detected on a PerkinElmer EnVision Multimode Plate Reader as relative luminescence units (RLU).
A general note: ATP-based viability assays read luminescence as a measure of living cells.

The target in assay [2] is T1, CXCR4 (Homo sapiens, UniProt P61073). The experiment in a line: Chemokine (CXCL12-AF647) binding inhibition assay, Jurkat cells expressing CXCR4. The following applies: CXCL12-AF647 25 ng/ml, read-out: IC50 CXCL-12 binding Jurkat. As for the experimental part: Jurkat cells expressing CXCR4 were washed once with assay buffer (Hanks' balanced salt solution with 20 mM HEPES buffer and 0.2% bovine serum albumin, pH 7.4) and then incubated for 15 min at room temperature with the test compounds diluted in assay buffer at dose-dependent concentrations. Subsequently, CXCL12-AF647 (25 ng/ml) was added to the compound-incubated cells. The cells were incubated for 30 min at room temperature. Thereafter, the cells were washed twice in assay buffer, fixed in 1% paraformaldehyde in PBS, and analyzed on the FL4 channel of a FACSCalibur flow cytometer equipped with a 635-nm red diode laser (Becton Dickinson, San Jose, CA, USA).
T1 sequence (P61073 whole entry): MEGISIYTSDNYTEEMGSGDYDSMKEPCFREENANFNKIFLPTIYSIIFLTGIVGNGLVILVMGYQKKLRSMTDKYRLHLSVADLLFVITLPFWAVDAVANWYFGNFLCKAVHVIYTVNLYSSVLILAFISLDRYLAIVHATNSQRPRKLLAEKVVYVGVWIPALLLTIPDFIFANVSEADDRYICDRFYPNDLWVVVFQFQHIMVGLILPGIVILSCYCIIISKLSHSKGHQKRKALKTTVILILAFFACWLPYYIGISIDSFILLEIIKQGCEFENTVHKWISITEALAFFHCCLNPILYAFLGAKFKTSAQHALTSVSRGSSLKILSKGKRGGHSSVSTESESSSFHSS
The percentages of inhibition of CXCL12-AF647 binding were calculated according to the formula: [1−((MFI−MFINC)/(MFIPC−MFINC))]×100 where MFI is the mean fluorescence intensity of the cells incubated with CXCL 12-AF647 in the presence of the inhibitor, MFINC is the mean fluorescence intensity measured in the negative control (i.e., autofluorescence of unlabeled cells), and MFIPC is the mean fluorescence intensity of the positive control (i.e., cells exposed to CXCL12-AF647 alone).

Assay [3] concerns the target T1, CXCR4. Description: Intracellular CXCL-12-induced calcium mobilization assay (FLIPR), U87.CXCR4 cells. It counts as cell-based. Set-up: expressed in transfected cells; host or cells: U87 (U87.CXCR4). As to conditions: CXCL-12 25-50 ng/ml, read-out: IC50 CXCL-12 Ca2+ flux U87.CXCR4+. As for the experimental part: Intracellular calcium mobilization induced by chemokines or chemokine-derived peptides were evaluated using a calcium responsive fluorescent probe and a FLIPR system. The CXCR-4 transfected U87 cell line (U87.CXCR4) cells were seeded in gelatine-coated black-wall 96-well plates at 20,000 cells per well and incubated for 12 hours. Cells were then loaded with the fluorescent calcium probe Fluo-2 acetoxymethyl at 4 μM final concentration in assay buffer (Hanks' balanced salt solution with 20 mM HEPES buffer and 0.2% bovine serum albumin, pH 7.4) for 45 min at 37° C. The intracellular calcium mobilization induced by the CXCL-12 (25-50 ng/ml) was then measured at 37° C. by monitoring the fluorescence as a function of time in all the wells simultaneously using a fluorometric imaging plate reader (FLIPR Tetra, Molecular Devices).

The target of assay [4] is BTK (Homo sapiens, UniProt Q06187). Description: BTK Kinase Enzyme System with ADP-Glo Kinase Assay. The following applies: 50 μM ATP. It counts as biochemical. More on the design: Recombinant full-length human BTK was expressed by baculovirus in Sf9 insect cells; His (N); purchased Promega V9071; host or cells: Sf9 insect cells (baculovirus). The procedure:
Inhibition of BTK activity was evaluated using the BTK Kinase Enzyme System in combination with the ADP-Glo™ Kinase Assay Kit (V9071, Promega), according to manufacturer's instructions. Luminescence was detected on a PerkinElmer EnVision Multimode Plate Reader.
Recombinant full-length human BTK was expressed by baculovirus in Sf9 insect cells using an N-terminal His tag, MW ˜78 kDa. Substrate solution contained Poly (4:1 Glu, Tyr) Peptide Substrate. BTK Kinase Buffer consisted of: 40 mM Tris, pH 7.5; 20 mM MgCl2; 0.1 mg/ml BSA; 2 mM MnCl2; 50 μM DTT. ADP-Glo™ Reagents were thawed at ambient temperature; components of BTK Enzyme System, ADP and ATP were thawed on ice. Final assay conditions used 3 ng BTK, 50 μM ATP, and 0.2 mg/mL substrate. Compounds were tested at 11 dose points in duplicates, in 3-fold dilution with top concentration at 10 μM.
Assay performance was evaluated according to the reference compound Staurosporine, which was within 3-5 fold of published results and between different tests, with a Z′ value larger than 0.5, where applicable.
For orientation: ADP-Glo turns the ADP formed in a reaction into a luminescent signal.

Assay [5] deals with T2, BTK (Bruton tyrosine kinase) (Homo sapiens, UniProt Q06187).
T2 construct: GST or His (the text leaves open which); purchased Reaction Biology Europe GmbH Lot 012,11; host or cells: Sf9 insect cells or E. coli (not resolved)
T2 sequence (Q06187 whole entry): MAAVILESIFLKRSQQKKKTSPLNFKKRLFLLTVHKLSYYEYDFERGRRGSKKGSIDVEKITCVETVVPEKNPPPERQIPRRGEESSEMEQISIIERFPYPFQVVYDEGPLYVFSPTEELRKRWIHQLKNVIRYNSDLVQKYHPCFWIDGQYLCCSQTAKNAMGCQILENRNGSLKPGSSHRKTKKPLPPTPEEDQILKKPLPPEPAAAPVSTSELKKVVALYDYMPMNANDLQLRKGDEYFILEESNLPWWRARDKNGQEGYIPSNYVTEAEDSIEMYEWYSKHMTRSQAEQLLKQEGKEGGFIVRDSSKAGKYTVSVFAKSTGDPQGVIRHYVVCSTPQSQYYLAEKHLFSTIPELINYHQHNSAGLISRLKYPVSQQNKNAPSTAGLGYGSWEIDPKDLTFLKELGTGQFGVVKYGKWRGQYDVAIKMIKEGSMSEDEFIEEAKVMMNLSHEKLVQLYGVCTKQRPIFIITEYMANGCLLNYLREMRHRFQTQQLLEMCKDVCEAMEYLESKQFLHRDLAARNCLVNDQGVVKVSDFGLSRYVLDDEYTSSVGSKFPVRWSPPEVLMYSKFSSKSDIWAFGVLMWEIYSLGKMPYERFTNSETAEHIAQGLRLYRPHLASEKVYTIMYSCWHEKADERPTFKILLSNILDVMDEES
The experiment in a line: BTK screening assay (33PanQinase Activity Assay, radiometric). It counts as biochemical. The following applies: Inhibition of BTK, radiometric 33PanQinase Activity Assay, 3 μM ATP, 10 concentrations in singlicate, top 10 μM; read-out: 33PanQinase ® Radiometric IC50.

The subject of assay [6] is T98G. Description: Glioblastoma multiforme cell proliferation assay (CellTiter Glo), T98G. It counts as cell-based. The following applies: Homo sapiens, Table 6B. The procedure: (§1) Inhibition of glioblastoma multiforme cell proliferation by compounds of the present invention was evaluated in U-87 MG (ATCC; Cat. No. HTB-14; Lot. No. 5018014) and T98G (ATCC; Cat. No. CRL-1690; Lot. No. 58267513) cell lines. These are adherent cell lines isolated from glioblastoma multiforme/malignant glioma, which express both CXCR4 and BTK (see Zhou et al. 2002 and Yue et al. 2017).
(§2) Cell viability was analyzed with the CellTiter Glo Cell assay kit ([…], Cat. No. G7573, Lot. No. 0000474103), according to the manufacturer's instruction.
(§3) U-87 MG and T98G cells were seeded onto 384-well opaque-walled clear bottom plates (Corning, Cat. No. 3765, Lot. No. 34319047) in EMEM (Invitrogen, Cat. No. 11095-080; Lot. No. 2276656) supplemented with 10% FBS (Invitrogen, Cat. No. 10099-141C, Lot. No. 2145169CP), at a seeding density of 1000 or 1200 cells per well, respectively, and then incubated in 5% CO2 at 37° C. overnight.
(§4) Compounds were prepared as stock solutions of 30 mM in DMSO (Sigma, Cat. No. 276855-1L. Lot. No. SHBL5610). Compounds were added to the cells, with 10 dose points in duplicates, in 3-fold dilution from a top concentration of 30 μM (final DMSO concentration […]), and incubated in 5% CO2 at 37° C. for 96 hr.
(§5) The 384-well plates were equilibrated at room temperature for approximately 30 min. 25 μl of CellTiter-Glo® Reagent was added to each well and mixed for 10 min on an orbital shaker to induce cell lysis. The 384-well plates were incubated at room temperature for 10 min to stabilize luminescent signal. Luminescence was detected on a PerkinElmer EnVision Multimode Plate Reader (measurement time 0.1s) as relative luminescence units (RLU).

Assay [7] concerns U-87 MG. The experiment in a line: Glioblastoma multiforme cell proliferation assay (CellTiter Glo), U-87 MG. It counts as cell-based. As to conditions: Homo sapiens, Table 6B. As for the experimental part:
as §1, §2, §3, §4, §5

The subject of assay [8] is GBM-U251MG. Description: GBM cell proliferation, U251MG (cell-based cancer efficacy assays). As to conditions: Homo sapiens, U-251; Table 6B.
Setting [9] is: class, read-out: Ramos viability IC50.

Chain of BTK (Q06187 whole entry): as above

`Cc1cc(-c2ncnc3[nH]c(C(=O)NCCCCN4[C@@H](c5ncccc5C)CCC[C@H]4c4ncccc4C)cc23)ccc1CNC(=O)c1ccc(C(C)(C)C)cc1` [Compound I-6]: the IC50 in assay [1] (setting [9]) was 1.5 to 2 µM; in assay [1] (read-out: IC50), 1.55 µM; in assay [2] it was 0.001 to 0.1 µM; in assay [3] it was more than 2.5 µM; in assay [4], 0.001 to 0.1 µM; in assay [5] it was 0.001 to 0.1 µM.
For the compound `Cc1cccnc1[C@H]1CCC[C@@H](c2ncccc2C)N1CCN1CCN(C(=O)c2ccc(-c3cc4c(-c5cccc(NC(=O)c6ccc(C(C)(C)C)cc6)c5C)ncnc4[nH]3)cc2)CC1` [Compound I-7], the IC50 was 1.5 to 2 µM in assay [1] (setting [9]); 1.62 µM in assay [1] (read-out: IC50); 0.1 to 1 µM in assay [2]; more than 2.5 µM in assay [3]; 0.001 to 0.1 µM in assay [4]; 0.001 to 0.1 µM in assay [5].
With `Cc1cccnc1[C@H]1CCC[C@@H](c2ncccc2C)N1CCNC1CN(C(=O)c2ccc(-c3cc4c(-c5cccc(NC(=O)c6ccc(C(C)(C)C)cc6)c5C)ncnc4[nH]3)cc2)C1` [Compound I-8], the IC50 is not below 4 µM in assay [1] (setting [9]); 11.1 µM in assay [1] (read-out: IC50); 0.001 to 0.1 µM in assay [2]; 0.1 to 1 µM in assay [3]; 0.001 to 0.1 µM in assay [4]; 0.001 to 0.1 µM in assay [5].
As to `Cc1cccnc1[C@H]1CCC[C@@H](c2ncccc2C)N1CCNC1CN(C(=O)c2ccc(-c3cc4c(-c5cccc(NC(=O)c6ccccc6)c5C)ncnc4[nH]3)cc2)C1` [Compound I-9], the IC50 in assay [1] (setting [9]) is 2 to 4 µM; in assay [1] (read-out: IC50) it was 3.54 µM; in assay [2], 0.001 to 0.1 µM; in assay [3] it was 0.001 to 0.1 µM; in assay [4], 0.1 to 1 µM; in assay [5] it was 0.1 to 1 µM.
Turning to `Cc1cc(-c2ccnc(Nc3cnn(CCCN4[C@@H](c5ncccc5C)CCC[C@H]4c4ncccc4C)c3)n2)ccc1CNC(=O)N1CC(OC(C)C)C1` [Compound I-12, N-(4-(2-(1-(3-((2S,6R)-2,6-bis(3-methylpyridin-2-yl)piperidin-1-yl)propyl)-1H-pyrazol-4-ylamino)pyrimidin-4-yl)-2-methylbenzyl)-3-isopropoxyazetidine-1-carboxamide], the IC50 in assay [1] (setting [9]) was 2 to 4 µM; in assay [1] (read-out: IC50), 2.78 µM; in assay [2], 0.001 to 0.1 µM; in assay [3] it was 1 to 2.5 µM; in assay [4], 0.001 to 0.1 µM; in assay [5] it was 0.001 to 0.1 µM.
For the compound `Cc1cccnc1[C@H]1CCC[C@@H](c2ncccc2C)N1CCCCNC[C@@H]1CC[C@@H](Nc2ncnc3[nH]cc(C(=O)c4ccc(Oc5ccccc5)cc4Cl)c23)CO1` [Compound I-13, (4-((3R,6S)-6-((4-((2R,6S)-2,6-bis(3-methylpyridin-2-yl)piperidin-1-yl)butylamino)methyl)tetrahydro-2H-pyran-3-ylamino)-7H-pyrrolo[2,3-d]pyrimidin-5-yl) (2-chloro-4-phenoxyphenyl) methanone], the IC50 is 0.1 to 1 µM in assay [2], more than 2.5 µM in assay [3], 0.1 to 1 µM in assay [4] and 0.1 to 1 µM in assay [5].
In the case of `Cc1cccnc1[C@H]1CCC[C@@H](c2ncccc2C)N1CCCCOC(=O)[C@@H]1CC[C@@H](Nc2ncnc3[nH]cc(C(=O)c4ccc(Oc5ccccc5)cc4Cl)c23)CO1` [Compound I-14], the IC50 in assay [2] is more than 2.5 µM; in assay [3], more than 2.5 µM; in assay [4], 0.001 to 0.1 µM; in assay [5], 0.001 to 0.1 µM.
As for `Cc1cccnc1[C@H]1CCC[C@@H](c2ncccc2C)N1CCNC[C@@H]1CC[C@@H](Nc2ncnc3[nH]cc(C(=O)c4ccc(Oc5ccccc5)cc4Cl)c23)CO1` [Compound I-15, (4-((3R,6S)-6-((2-((2R,6S)-2,6-bis(3-methylpyridin-2-yl)piperidin-1-yl)ethylamino)methyl)tetrahydro-2H-pyran-3-ylamino)-7H-pyrrolo[2,3-d]pyrimidin-5-yl) (2-chloro-4-phenoxyphenyl) methanone], the IC50 in assay [2] is 1 to 2.5 µM; in assay [3], more than 2.5 µM; in assay [4] it was 1 to 2.5 µM; in assay [5] it was 1 to 2.5 µM.
As to `Cc1cccnc1[C@H]1CCC[C@@H](c2ncccc2C)N1CCNC(=O)[C@@H]1CC[C@@H](Nc2ncnc3[nH]cc(C(=O)c4ccc(Oc5ccccc5)cc4Cl)c23)CO1` [Compound I-17], the IC50 in assay [2] was 1 to 2.5 µM; in assay [3], more than 2.5 µM; in assay [4] it was 0.001 to 0.1 µM; in assay [5], 0.001 to 0.1 µM.
For the compound `Cc1cccnc1[C@@H]1CCC[C@H](c2cn3c(N4CCN(C)CC4)cccc3n2)N1C` [Compound I-19], the Emax in assay [6] (read-out: GBM-T-98G Cell Proliferation Emax %) is 16%; in assay [7] (read-out: GBM-U87MG Cell Proliferation Emax %), 19%; in assay [8] it was 6%. Further, the IC50 in assay [6] (read-out: GBM-T-98G Cell Proliferation IC50) was more than 30 µM; in assay [7] (read-out: GBM-U87MG Cell Proliferation IC50), 6.47 µM; in assay [8], 1.67 µM.
